According to patent US6660530B2, “Methods for labeling β-amyloid plaques and neurofibrillary tangles” (The Regents of the University of California, priority 1998, dated 2003):
Entries after “also recorded” stand apart in the source; their conditions may differ.

Legend:
[1] = Standing of the free base at room temperature after neutralization (TLC); type: physicochemical; conditions: light yellow oil after NaHCO3 wash
Method: Dichloromethane (10 mL) was added and the solution was washed with saturated NaHCO3 solution, dried, and evaporated in vacuo. A light yellow oil was obtained, which, on standing at room temperature, turned dark red. […] Selected ^1H NMR signals after neutralization: δ2.72 (s, 3H, CH3), 3.09 and 3.35 (t, J=5 Hz, 8H, piperazine), 7.08 (s, 1H, 5-H), 8.02 (s, 1H, 1-H).

[2] = target: amyloid plaques in Alzheimer's brain (Homo sapiens, UniProt P05067); conditions: cited from earlier work
amyloid plaques in Alzheimer's brain, sequence (P05067 672-713 limits assumed): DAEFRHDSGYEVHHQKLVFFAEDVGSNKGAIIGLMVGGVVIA

[3] = test system: β-amyloid plaques and neurofibrillary tangles; experiment: In vitro fluorescence labeling of Alzheimer's disease brain tissue sections; type: binding, human; conditions: for visualization of neurofibrillary tangles, amyloid peptides and diffuse amyloid: all Alzheimer's disease brain specimens, fluorescence; for fluorescent labeling of amyloid plaques: sections of Alzheimer's disease patient brain, fluorescence microscope
Method: (§1) A 2.1 mg/mL DDNP stock solution was prepared, which was adjusted to 8 mM in 100% ethanol. A DDNP working solution was prepared by diluting the stock solution with distilled water in a ratio of 1:100-1000 (stock solution:distilled water).
(§2) β-amyloid 250 μM (1.25 mg/mL in distilled water) was aggregated at 37° C. for 48 hours. 5 μL were smeared on slides, air-dried and then rehydrated with distilled water. Alternatively, Aβ-positive brain tissue sections were rehydrated with distilled water. DDNP working solution was applied to each slide for 30 minutes at room temperature. The slides were washed three times for five minutes with distilled water. The slides were coverslipped with fluorescent protectant mounding media (Vectashield™, available Vector Labs., Burlingame, Calif.) and observed under a fluorescence microscope with a thioflavin S or FITC filter.
Since DDNP and its derivatives are fluorescent, an evaluation of the ability of [F-18]FDDNP to label β-amyloid plaques and neurofibrillary tangles in vitro was also performed with the same brain specimens.
In FIG. 5, the central image was obtained by immunostaining a forty five micrometer cryostate temporal cortex section of an Alzheimer's disease patient incubated with AT8 (anti-phosphotau) and 10G4 (anti-AB1-15) at 1:800. Insets are adjacent sections of the same Alzheimer's disease brain specimen stained with FDDNP. Images were generated using fluorescent scanning microscopy. Green arrows indicate approximate origin of inset with reference to central immunostaining section.

[4] = target: T1, plaque in Tg2576 HuAPPsw transgenic mouse brain (Homo sapiens, UniProt P05067); experiment: In vitro fluorescence labeling of transgenic mouse brain section; type: binding
T1 construct: from tissue; host or cells: brain section of Tg2576 HuAPPsw transgenic mouse
T1 sequence (P05067 672-713 limits assumed): as above
Method: as §2, with “A 2.1 mg/mL DDNP stock solution was prepared, which was adjusted to 8 mM in 100% ethanol. A DDNP working solution was prepared by diluting the stock solution with distilled water in a ratio of 1:100-1000 (stock solution:distilled water). β-amyloid” for “β-amyloid”, “(VectashieldTM,” for “(Vectashield™,”

β-amyloid 1-40 = target: T2, β-amyloid 1-40 (Homo sapiens, UniProt P05067); experiment: Labeling of aggregated β-amyloid dried onto a slide; type: binding; conditions: aggregated 8 days at 37° C., dried onto gelatin coated slide
T2 construct: an aliquot of β-amyloid 1-40 was allowed to aggregate
T2 sequence (P05067 672-711 limits assumed): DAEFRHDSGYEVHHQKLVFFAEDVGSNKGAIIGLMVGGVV
Method: as §2, with “β-amyloid 250 μM (1.25 mg/mL in distilled water) was aggregated at 37° C. for 48 hours.” left out

[5] = target: T3, aggregated β-amyloid 1-40 injected into rat cortex (Homo sapiens, UniProt P05067); experiment: In vivo labeling of aggregated β-amyloid injected into rat cortex
T3 construct: an aliquot of β-amyloid 1-40 was allowed to aggregate
T3 sequence (P05067 672-711 limits assumed): as above
Method: β-amyloid 250 μM (1.25 mg/mL in distilled water) was aggregated at 37° C. for 48 hours to produce fibrils confirmed by smears. Three rats were anesthetized. 3 μL of a solution of Aβ fibrils (1.25 μg/μL) were injected unilaterally into the cortex of each rat (Bregma 0, AP-4.1 mm, ML+2.0 mm, DV-3.1 mm). Then 3 μL of phosphate buffered saline (PBS) were injected into the contralateral side of each rat brain as a vehicle control. After injection, the needle remained for 5 minutes to prevent reflux, and then the cranial hole was sealed with bone wax. […]
[…] Additional immersion fixation of rat brain was at 4° C. overnight with PLP fixative. The rat brains were washed with PBS, saturated in 10 and 20% sucrose, and snap frozen in chilled isopentane (−70° C.) with liquid nitrogen. The brains were cryostat sectioned at […] around the needle-track and directly coverslipped with glycerol and fluorescence protectant (Vectashield™).

[6] = Storage of stock solution in the freezer; type: physicochemical; conditions: stock in 100% ethanol, used at 1/100 to 1/1,000 dilutions
Method: as §1

[7] = test system: β-amyloid plaques and neurofibrillary tangles; experiment: PET imaging of patients after intravenous [F-18]FDDNP; type: in vivo, human
Method: A patient was placed in a tomograph to obtain brain dynamic PET images. 8.0 mCi of 2-(1.1-dicyanopropen-2-yl)-6-(2-[^18F]-fluoroethyl)-methylamino)-naphthalene ([F18]FDDNP) (specific activity: 5-12 Ci/micromol; mass:˜1 nanomol), prepared as described in Example 1(f), were injected intravenously into the arm of the patient. Dynamic acquisition data of brain images were recorded simultaneously in forty-seven brain planes for two hours.
Labeling and detection of human β-amyloid plaques and neurofibrillary tangles in vivo were conducted using the following procedures. Ten human subjects, seven Alzheimer's diseased patients (ages 71 to 80) and three control patients (ages 62 to 82) were studied. The patients were positioned supine in an EXACT HR+962 tomograph (Siemens-CTI, Knoxville, Tenn.) with the imaging plane parallel to the orbito-meatal line. Venous catheterization was performed, and then [F-18]FDDNP (5-10 mCi) in human serum albumin (25%) was administered as a bolus via the venous catheter. Sequential emission scans were obtained beginning immediately after [F-18]FDDNP administration using the following scan sequence: six 30 second scans, four 3 minute scans, five 10 minute scans, and three 20 minute scans. Rapid venous blood sampling was performed via the indwelling catheter in two subjects for input function determination and plasma metabolite analysis.
The residence time shown is in reference to that in the pons, an area known to have limited involvement in Alzheimer's disease pathology. The residence time was calculated from the clearance rates of the tracer in affected regions of interest (ROI) and in the pons as:
Residence time=[1/clearance rate for affected ROI]−[1/clearance rate for pons]
Separate ROIs were defined in entorhinal cortex, hippocampus, lateral temporal cortex and pons. The region with the slowest clearance rate was used as the affected ROI in the calculation of the residence time shown in FIG. 4.

[8] = test system: β-amyloid plaques and neurofibrillary tangles; experiment: In vitro autoradiography with brain specimens of Alzheimer diseased patients; type: binding, human

## CC(=C(C#N)C#N)c1ccc2cc(N3CCNCC3)ccc2c1 [2-[1-(6-piperazino-2-naphthyl)ethylidene]malononitrile]
[1]
  stability on standing at room temperature: decomposition

## O=C(O)c1cc(/N=N/c2ccc(-c3ccc(/N=N/c4ccc(O)c(C(=O)O)c4)cc3)cc2)ccc1O [Chrysamine G]
[2]
  ability to label amyloid plaques in Alzheimer's brain: weak

## CC(=C(C#N)C#N)c1ccc2cc(N(C)C)ccc2c1 [DDNP, 2-(1,1-dicyanopropen-2-yl)-6-dimethylaminonaphthalene]
[3]
  visualization of neurofibrillary tangles, amyloid peptides and diffuse amyloid: excellent visualization
  fluorescent labeling of amyloid plaques: able to label amyloid plaques; also recorded: readily labeled amyloid deposits; also recorded: amyloid plaques labeled; also recorded: strong; also recorded: labeling of a single, large plaque with an amyloid core
[3]; cortex of the brain of an Alzheimer's disease patient
  fluorescent labeling of tangles: weak
[4]
  fluorescent labeling of plaque: labeling of a plaque
β-amyloid 1-40
  fluorescence of labeled aggregated β-amyloid 1-40: fibrillar fluorescence consistent with amyloid
[5]; rat
  fluorescent labeling after formic acid treatment of section through the injection site: removes fluorescent labeling
[5]; rat, 100 μL of 640 μM DDNP into the carotid artery, sacrificed after 20 minutes, brain cryosections
  in vivo fluorescent labeling of injected amyloid: fluorescently labeled amyloid at the tip of the need track
[5]; rat, side where no amyloid is present
  labeling contralateral to the amyloid injection site: weak
[5]; rats
  passage of the blood brain barrier: passes the blood brain barrier
[6]
  stability of stock solution: can be kept in the freezer for six months and still produce acceptable results
other
  melting point: 154.5 to 155 °C

## CC(=O)c1ccc2cc(N3CCN(C(=O)OC(C)(C)C)CC3)ccc2c1 [Example 1(d), tert-Butyl-4-(6-acetyl-2-naphthyl)-1-piperazinecarboxylate]
other
  melting point: 153 to 154 °C

## CC(=C(C#N)C#N)c1ccc2cc(N(C)CC[18F])ccc2c1 [[F-18]FDDNP]
[3]
  visualization of neurofibrillary tangles, amyloid peptides and diffuse amyloid: excellent visualization
[3]; temporal cortex sections of an Alzheimer's disease patient, fluorescent scanning microscopy
  structures stained (FIG. 5 insets): (1) neuritic plaques, (2) diffuse plaque, (3) vascular amyloid, (4) dense plaques and tangles, and (5) dense tangles
[7]; Alzheimer's diseased patients vs control patients, affected ROI with slowest clearance rate
  estimated residence time in reference to pons: different from values in control patients
[7]; human patient, 8.0 mCi intravenously, dynamic PET for two hours
  labeling of brain structures / accumulation of label: labels brain by structures in a manner consistent with the presence of beta amyloid plaques and neurofibrillary tangles; also recorded: maximum accumulation
[7]; human, brain areas known to accumulate β-amyloid plaques and neurofibrillary tangles
  regional clearance from brain: slower clearance
[7]; human, intravenous injection
  crossing of the blood brain barrier: crosses the blood brain barrier readily in proportion to blood flow
[7]; human, most cases, even patients with low severity of symptoms
  retention of activity in hippocampus-amygdala-entorhinal cortex: high retention
[8]
  binding / distribution of activity in autoradiography: Binding was observed in hippocampus, temporal and parietal cortex

## Thioflavin S [reference compound]
[3]
  fluorescent labeling of amyloid plaques: labeling of a cored plaque
